Test results published in US20120129721A1, “URINARY GM2 ACTIVATOR PROTEIN AS A MARKER OF ACUTE RENAL FAILURE OR THE RISK OF […] RENAL FAILURE” (priority 2009, published 2012).
Like-named read-outs stand apart in the source and are kept apart here.

What was measured:
[1] = system: GM2 activator protein (GM2AP) in urine
Description: (§1) In-house bred, female Wistar rats weighing 190-230 g were divided in the following experimental groups (FIG. 1): (i) Control: rats treated i.p. during 7-13 days with saline (0.9% NaCl), once daily.
(§2) For the whole experiment, rats were individually allocated in metabolic cages under temperature and humidity controlled conditions. Animals were allowed to eat regular chow and drink water ad libitum. At different times, 24-hour urine and blood samples were obtained. Urine was collected in graduated vessels supplemented with 100 μL of 0.1% sodium azide and 1 ml oil to prevent contamination and evaporation, respectively. Subsequently, urine was cleared by centrifugation at 1,175×g, aliquoted and stored at −80° C. Blood was drawn from a small incision in the tail and collected in heparinised capillaries. These were immediately centrifuged at 12,000×g and plasma was stored at −80° C. At the end of the experiment, rats were anesthetized with sodium pentobarbital (10 mg/kg). The kidneys were perfused with heparinised saline through the abdominal aorta, and they were immediately dissected. The right kidney and one half of the left one were swiftly frozen by immersion in liquid nitrogen, and stored at −80° C. Eventually, they were used for Western blot studies. For such a purpose, frozen tissues were homogenized under freezing conditions by hammer-smashing, until a fine powder was obtained. The powder was also kept at −80° C. The second half of the left kidney was immersed in 3.7% paraformaldehyde at 4° C. during 14-16 hours. After it, tissue samples were processed for immunohistochemical studies.
Protein extracts were obtained from 100 mg tissue homogenate powder, prepared by homogenizing the kidneys with a tissue mixer (Ultra-Turrax T8, IKA®-Werwe) at 4° C. in homogenization buffer (140 mM NaCl, 20 mM Tris-HCl pH=7.5, 0.5 Methylenediaminetetraacetic acid—EDTA-, 10% glycerol, 1% Igepal CA-630, 1 μg/mL aprotinin, 1 μg/mL leupeptin, 1 μg/mL pepstatin A, 1 mM phenylmethylsulphonyl fluoride—PMSF-). Tissue homogenates were centrifuged at 22,000 g during 15 minutes at 4° C. Supernatants were collected. Protein concentration was measured with a commercial kit (BioRad) based on the Lowry method. 50 μg total protein from tissue extracts or 20 μL cleared urine from each sample were separated by electrophoresis in 10-15% acrylamide gels (Mini Protean II system, BioRad). Immediately, proteins were electrically transferred to an Immobilon-P membrane (Millipore). […]
Protein concentration was determined by the Bradford method.

Wistar rats [2] = test: Time course of markers of nephrotoxicity under gentamicin 150 mg/kg/day
Description: as §1, §2
(§3) Plasma and urine concentration of creatinine and blood urea nitrogen (BUN) were determined by an automated analysis system (Reflotron®, Roche Diagnostics, Barcelona, Spain) and commercial reactive strips (Roche Diagnostics, Barcelona, Spain), using 32 μL of plasma and urine. This method has a lower detection limit of 0.5 mg/dL for creatinine. Samples reading under 0.5 mg/dL creatinine were head-to-head re-assayed by the colorimetric method of Jaffe (Hervey, 1953. Nature, 171: 1125).
(§4) Urine protein concentration (mg/mL) was measured by the Bradford method (39). Daily protein excretion (mg/day) was obtained by multiplying urine protein concentration by the 24-hour urine flow (mL/day).
(§5) Urine NAG activity (arbitrary units, AU/mL), as an estimation of urine NAG concentration, was measured by a commercial enzymatic test (Roche Diagnostics, Barcelona, Spain) following the manufacturer's instructions. Urine NAG activity was converted into daily NAG excretion (AU/day) by multiplying urine NAG activity by 24-hour urine flow (mL/day).
(§6) Protein extracts were obtained from 100 mg tissue homogenate powder, prepared by homogenizing the kidneys with a tissue mixer (Ultra-Turrax T8, IKA®-Werwe) at 4° C. in homogenization buffer (140 mM NaCl, 20 mM Tris-HCl pH=7.5, 0.5 Methylenediaminetetraacetic acid—EDTA-, 10% glycerol, 1% Igepal CA-630, 1 μg/mL aprotinin, 1 μg/mL leupeptin, 1 μg/mL pepstatin A, 1 mM phenylmethylsulphonyl fluoride—PMSF-). Tissue homogenates were centrifuged at 22,000 g during 15 minutes at 4° C. Supernatants were collected. Protein concentration was measured with a commercial kit (BioRad) based on the Lowry method. 50 μg total protein from tissue extracts or 20 μL cleared urine from each sample were separated by electrophoresis in 10-15% acrylamide gels (Mini Protean II system, BioRad). Immediately, proteins were electrically transferred to an Immobilon-P membrane (Millipore). After blocking the membrane to avoid unspecific binding, membranes were probed with antibodies against KIM-1 (R&D Systems), bone morphogenetic protein-7 (BMP-7, Santa Cruz Biotechnology), plasminogen activator inhibitor-1 (PAI-1, BD Biosciences), vimentin (Dako Denmark) and GM2 activator protein (GM2AP, see above).

[3] = system: PAI-1, KIM-1 and vimentin in renal tissue; test: Western blot of renal tissue homogenates for markers of tissue damage and repair
Description: as §1, §2, §6

Wistar rats [4] = test: Survival rate and body weight evolution of rats treated with gentamicin; type: in vivo; conditions: gentamicin 150 mg/kg/day (G-150), 7 days
Wistar rats [5] = test: Kidney histology (haematoxylin and eosin); type: in vivo
Protocol: Eventually, they were used for Western blot studies. […] The powder was also kept at −80° C. […] After it, tissue samples were processed for immunohistochemical studies.
Kidneys were kept in p-formaldehyde overnight at 4° C. Then, paraffin blocks were made and 5-μm tissue sections were cut and stained with hematoxilin and eosin. Photographs were taken under an Olympus BX51 microscope connected to an Olympus DP70 colour, digital camera.

[6] = system: GM2 activator protein (GM2AP) in urine; test: Urinary GM2AP (Western blot) and renal function in humans treated with gentamicin; type: in vivo; conditions: hospitalized patients under gentamicin regime for 2 or 3 days vs untreated controls
Description: Supernatants were collected.
As controls, the urine from age- and sex-matched individuals not receiving gentamicin was used.

Wistar rats [7] = test: Renal function characterization (plasma creatinine, BUN, urinary protein and NAG excretion) of gentamicin-treated rats; conditions: for BUN concentration: vs control
Description: as §1, §2, §3, §4, §5

[8] = G-150, after inception of treatment

Compound: N.N.[Cl][Pt][Cl] [cisplatin]
- urinary GM2AP (Western blot) ([1]; two doses of cisplatin 10 mg/kg on first and third days, urine 4 days after treatment inception): high levels

Compound: gentamicin
- day by which BUN concentration was increased (Wistar rats [2]; [8]): 4 days
- day by which proteinuria was increased (Wistar rats [2]; [8]): 4 days
- day at which urinary level of GM2AP started to increase (Wistar rats [2]; G-150, urine, Western blot): 1 days
- day by which urinary level of KIM-1 was increased (Wistar rats [2]; G-150, urine, Western blot): 4 days
- day by which urinary level of PAI-1 was increased (Wistar rats [2]; G-150, urine, Western blot): 4 days
- time from beginning of administration at which GM2AP is detected by Western blot (Wistar rats [2]; gentamicin 150 mg/kg/day, urine): 24 h
- renal level of KIM-1 ([3]; G-50, 7 days, vs control): no increment
- renal level of PAI-1 ([3]; G-50, 7 days, vs control): no increment
- renal level of vimentin ([3]; G-50, 7 days, vs control): no increment
- renal level of KIM-1 ([3]; G-150, 7 days): clear increase
- renal level of PAI-1 ([3]; G-150, 7 days): clear increase
- renal level of vimentin ([3]; G-150, 7 days): clear increase
- body weight (Wistar rats [4]): body weight loss
- death rate (Wistar rats [4]): ~50%
- renal histology (Wistar rats [5]; G-50, 7 days, vs control): no gross tissue alterations
- renal histology (Wistar rats [5]; G-150, 7 days): massive tubular necrosis
- level of GM2AP in urine (Western blot) ([1]; G-50, 7 days, vs control): differential level
- GM2AP in urine (differential proteomics, 2D-electrophoresis) ([1]; G-50, 7 days, absent in control urine): highly expressed
- level of GM2AP in urine (Western blot) ([1]; G-150, 7 days, overt renal failure): increased
- urinary level of GM2AP (Western blot) [6]: clearly higher
- nephrotoxic effect (pilot dose titration) (Wistar rats [7]; 6 daily doses of 50 mg/kg/day (G-50)): no signs of nephrotoxicity
- nephrotoxic effect (pilot dose titration) (Wistar rats [7]; 6 daily doses of 150 mg/kg/day (G-150)): marked renal failure
- BUN concentration (Wistar rats [7]; G-50, 7 days): not modified
- BUN concentration (Wistar rats [7]; G-150, 7 days): profoundly altered
